Measurements taken from patent publication US12077503B2, “Substituted cyclic amides and their use as herbicides” (FMC CORPORATION, priority 2015, dated 2024).

What was measured:
Type in all cases: in vivo
[1] = test system: barnyardgrass (Echinochloa crus-galli); assay: Test G Pre-Emergence Protocol; conditions: evaluated after 13 days
Method: (§1) Seeds of corn (Zea mays), giant foxtail (Setaria faberi), barnyardgrass (Echinochloa crus-galli), ivy-leaved morning glory (Ipomoea hederacea), redroot pigweed (Amaranthus retroflexus) and velvetleaf (Abutilon theophrasti) were sown in standard soil in pots. After cultivation for one day under controlled conditions in a glasshouse (at 24/16° C., day/night; 14 hours light; 65% humidity), the plants were sprayed with an aqueous spray solution derived from the formulation of the technical active ingredient in acetone/water (50:50) solution containing 0.5% Tween 20 (polyoxyethylene sorbitan monolaurate, CAS RN 9005-64-5) to give a final dose of 15.625, 62.5 or 250 g/ha of test compound.
(§2) The test plants were then grown on under controlled conditions in a glasshouse (at 24/16° C., day/night; 14 hours light; 65% humidity) and watered twice daily. After 13 days the test was evaluated (100=total damage to plant; 0=no damage to plant). A dash (-) means no test result.

corn (Zea mays) [2] = assay: Test G Pre-Emergence Protocol; conditions: evaluated after 13 days
Method: as §1, §2

[3] = test system: giant foxtail (Setaria faberi); assay: Test G Pre-Emergence Protocol; conditions: evaluated after 13 days
Method: as §1, §2

[4] = test system: ivy-leaved morning glory (Ipomoea hederacea); assay: Test G Pre-Emergence Protocol; conditions: evaluated after 13 days
Method: as §1, §2

[5] = test system: redroot pigweed (Amaranthus retroflexus); assay: Test G Pre-Emergence Protocol; conditions: evaluated after 13 days
Method: as §1, §2

[6] = test system: velvetleaf (Abutilon theophrasti); assay: Test G Pre-Emergence Protocol; conditions: evaluated after 13 days
Method: as §1, §2

[7] = test system: barnyardgrass (Echinochloa crus-galli); assay: Test G Post-Emergence Protocol
Outline: (§3)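 Pot-grown seedlings, 8 days old, raised in a glasshouse at 24/16 °C day/night with 14 h light and 65% humidity, were sprayed post-emergence with test compound in acetone/water (50:50) plus 0.5% Tween 20 at 15.625, 62.5 or 250 g/ha. Damage was scored visually 13 days later on a 0–100 scale (100 = total damage).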

corn (Zea mays) [8] = assay: Test G Post-Emergence Protocol
Outline: as §3

[9] = test system: giant foxtail (Setaria faberi); assay: Test G Post-Emergence Protocol
Outline: as §3

[10] = test system: ivy-leaved morning glory (Ipomoea hederacea); assay: Test G Post-Emergence Protocol
Outline: as §3

[11] = test system: redroot pigweed (Amaranthus retroflexus); assay: Test G Post-Emergence Protocol
Outline: as §3

[12] = 62.5 g ai/ha, 100=total damage to plant, 0=no damage to plant
[13] = 15.625 g ai/ha, evaluated after 13 days (100=total damage to plant; 0=no damage to plant)
[14] = 62.5 g ai/ha, evaluated after 13 days
[15] = 250 g ai/ha, evaluated after 13 days

In the case of `CN1C[C@H](c2cccc(C(F)(F)F)c2)[C@@H](C(=O)Nc2cccnc2F)C1=O` [Compound 1397], the “Barnyardgrass damage rating (100=total damage to plant; 0=no damage to plant)” value ([1]; 250 g ai/ha) is reported as 90, the pest or weed control at 15.625 g/ha ([1]; Echinochloa crus-galli, pre-emergence, 312 h, 15.625 g ai/ha, read-out: Barnyard grass damage rating (100=total damage to plant; 0=no damage to plant)) is reported as 90% and the pest or weed control at 62.5 g/ha ([1]; Echinochloa crus-galli, pre-emergence, 312 h, 62.5 g ai/ha, 100=total damage to plant, 0=no damage to plant, read-out: plant damage rating, Barnyardgrass) is reported as 90%. The “Corn damage rating (100=total damage to plant; 0=no damage to plant)” value (corn (Zea mays) [2]; 15.625 g ai/ha) was 80, the “Corn damage rating (100=total damage to plant; 0=no damage to plant)” value (corn (Zea mays) [2]; 250 g ai/ha) was 90 and the plant injury at 62.5 g/ha (corn (Zea mays) [2]; Zea mays, pre-emergence, 312 h, 62.5 g ai/ha, 100=total damage to plant, 0=no damage to plant, read-out: plant damage rating, Corn) was 80%. The “Foxtail, Giant damage rating (100=total damage to plant; 0=no damage to plant)” value ([3]; 15.625 g ai/ha) was 90, the “Foxtail, Giant damage rating (100=total damage to plant; 0=no damage to plant)” value ([3]; 250 g ai/ha) was 90 and the pest or weed control at 62.5 g/ha ([3]; Setaria faberi, pre-emergence, 312 h, 62.5 g ai/ha, 100=total damage to plant, 0=no damage to plant, read-out: plant damage rating, Foxtail, Giant) was 90%. For the same molecule, the “Morningglory, Ivy-leaved damage rating (100=total damage to plant; 0=no damage to plant)” value ([4]; 250 g ai/ha) was 80, the pest or weed control at 15.625 g/ha ([4]; Ipomoea, pre-emergence, 312 h, 15.625 g ai/ha, read-out: Morning-glory, Ivy-leaved damage rating (100=total damage to plant; 0=no damage to plant)) was 60% and the pest or weed control at 62.5 g/ha ([4]; Ipomoea, pre-emergence, 312 h, 62.5 g ai/ha, 100=total damage to plant, 0=no damage to plant, read-out: plant damage rating, Morningglory, Ivy-leaved) was 70%. The “Pigweed, Redroot damage rating (100=total damage to plant; 0=no damage to plant)” value ([5]; 15.625 g ai/ha) was 0, the “Pigweed, Redroot damage rating (100=total damage to plant; 0=no damage to plant)” value ([5]; 250 g ai/ha) was 80 and the pest or weed control at 62.5 g/ha ([5]; Amaranthus retroflexus, pre-emergence, 312 h, 62.5 g ai/ha, 100=total damage to plant, 0=no damage to plant, read-out: plant damage rating, Pigweed, Redroot) was 20%. The “Velvetleaf damage rating (100=total damage to plant; 0=no damage to plant)” value ([6]; 15.625 g ai/ha) was 0, the “Velvetleaf damage rating (100=total damage to plant; 0=no damage to plant)” value ([6]; 250 g ai/ha) was 70 and the pest or weed control at 62.5 g/ha ([6]; Abutilon theophrasti, pre-emergence, 312 h, 62.5 g ai/ha, 100=total damage to plant, 0=no damage to plant, read-out: plant damage rating, Velvetleaf) was 10%. It also gave a pest or weed control at 15.625 g/ha ([7]; Echinochloa crus-galli, post-emergence, 312 h, 15.625 g ai/ha, evaluated after 13 days (100=total damage to plant; 0=no damage to plant), read-out: Barnyardgrass damage rating) of 80%, a pest or weed control at 62.5 g/ha ([7]; Echinochloa crus-galli, post-emergence, 312 h, 62.5 g ai/ha, evaluated after 13 days, read-out: Barnyardgrass damage rating (100=total damage to plant; 0=no damage to plant)) of 80% and a pest or weed control at 250 g/ha ([7]; Echinochloa crus-galli, post-emergence, 312 h, 250 g ai/ha, evaluated after 13 days, read-out: damage to plant, Barnyardgrass (100=total damage to plant; 0=no damage to plant)) of 80%. The plant injury at 15.625 g/ha (corn (Zea mays) [8]; Zea mays, post-emergence, 312 h, 15.625 g ai/ha, evaluated after 13 days (100=total damage to plant; 0=no damage to plant), read-out: Corn damage rating) was 80%, the plant injury at 62.5 g/ha (corn (Zea mays) [8]; Zea mays, post-emergence, 312 h, 62.5 g ai/ha, evaluated after 13 days, read-out: Corn damage rating (100=total damage to plant; 0=no damage to plant)) was 80% and the plant injury at 250 g/ha (corn (Zea mays) [8]; Zea mays, post-emergence, 312 h, 250 g ai/ha, evaluated after 13 days, read-out: damage to plant, Corn (100=total damage to plant; 0=no damage to plant)) was 80%. It also gave a pest or weed control at 15.625 g/ha ([9]; Setaria faberi, post-emergence, 312 h, 15.625 g ai/ha, evaluated after 13 days (100=total damage to plant; 0=no damage to plant), read-out: Foxtail, Giant damage rating) of 80%, a pest or weed control at 62.5 g/ha ([9]; Setaria faberi, post-emergence, 312 h, 62.5 g ai/ha, evaluated after 13 days, read-out: Foxtail, Giant damage rating (100=total damage to plant; 0=no damage to plant)) of 80% and a pest or weed control at 250 g/ha ([9]; Setaria faberi, post-emergence, 312 h, 250 g ai/ha, evaluated after 13 days, read-out: damage to plant, Foxtail, Giant (100=total damage to plant; 0=no damage to plant)) of 80%. It also gave a pest or weed control at 15.625 g/ha ([10]; Ipomoea, post-emergence, 312 h, 15.625 g ai/ha, evaluated after 13 days (100=total damage to plant; 0=no damage to plant), read-out: Morningglory, Ivy-leaved damage rating) of 60%, a pest or weed control at 62.5 g/ha ([10]; Ipomoea, post-emergence, 312 h, 62.5 g ai/ha, evaluated after 13 days, read-out: Morningglory, Ivy-leaved damage rating (100=total damage to plant; 0=no damage to plant)) of 60% and a pest or weed control at 250 g/ha ([10]; Ipomoea, post-emergence, 312 h, 250 g ai/ha, evaluated after 13 days, read-out: damage to plant, Morningglory, Ivy-leaved (100=total damage to plant; 0=no damage to plant)) of 70%. For the same molecule, the pest or weed control at 15.625 g/ha ([11]; Amaranthus retroflexus, post-emergence, 312 h, 15.625 g ai/ha, evaluated after 13 days (100=total damage to plant; 0=no damage to plant), read-out: Pigweed, Redroot damage rating) was 0%, the pest or weed control at 62.5 g/ha ([11]; Amaranthus retroflexus, post-emergence, 312 h, 62.5 g ai/ha, evaluated after 13 days, read-out: Pigweed, Redroot damage rating (100=total damage to plant; 0=no damage to plant)) was 30% and the pest or weed control at 250 g/ha ([11]; Amaranthus retroflexus, post-emergence, 312 h, 250 g ai/ha, evaluated after 13 days, read-out: damage to plant, Pigweed, Redroot (100=total damage to plant; 0=no damage to plant)) was 60%.
With `CN1C[C@H](c2ccc(C(F)(F)F)cc2)[C@@H](C(=O)Nc2cccc(F)n2)C1=O` [Compound 1400] the “Barnyardgrass damage rating (100=total damage to plant; 0=no damage to plant)” value ([1]; 15.625 g ai/ha) was 30, the “plant damage rating, Barnyardgrass” value [1, 12] was 80 and the “Barnyardgrass damage rating (100=total damage to plant; 0=no damage to plant)” value ([1]; 250 g ai/ha) was 80. The “Corn damage rating (100=total damage to plant; 0=no damage to plant)” value (corn (Zea mays) [2]; 15.625 g ai/ha) was 20, the “plant damage rating, Corn” value (corn (Zea mays) [2]; [12]) was 40 and the “Corn damage rating (100=total damage to plant; 0=no damage to plant)” value (corn (Zea mays) [2]; 250 g ai/ha) was 60. The “Foxtail, Giant damage rating (100=total damage to plant; 0=no damage to plant)” value ([3]; 15.625 g ai/ha) was 60, the “plant damage rating, Foxtail, Giant” value [3, 12] was 90 and the “Foxtail, Giant damage rating (100=total damage to plant; 0=no damage to plant)” value ([3]; 250 g ai/ha) was 90. The “Morning-glory, Ivy-leaved damage rating (100=total damage to plant; 0=no damage to plant)” value ([4]; 15.625 g ai/ha) was 0, the “plant damage rating, Morningglory, Ivy-leaved” value [4, 12] was 0 and the “Pigweed, Redroot damage rating (100=total damage to plant; 0=no damage to plant)” value ([5]; 15.625 g ai/ha) was 20. The “plant damage rating, Pigweed, Redroot” value [5, 12] was 80, the “Pigweed, Redroot damage rating (100=total damage to plant; 0=no damage to plant)” value ([5]; 250 g ai/ha) was 90 and the “Velvetleaf damage rating (100=total damage to plant; 0=no damage to plant)” value ([6]; 15.625 g ai/ha) was 10. For the same molecule, the “plant damage rating, Velvetleaf” value [6, 12] was 10, the “Velvetleaf damage rating (100=total damage to plant; 0=no damage to plant)” value ([6]; 250 g ai/ha) was 60 and the Barnyardgrass damage rating [7, 13] was 50. The “Barnyardgrass damage rating (100=total damage to plant; 0=no damage to plant)” value [7, 14] was 70, the “damage to plant, Barnyardgrass (100=total damage to plant; 0=no damage to plant)” value [7, 15] was 70 and the Corn damage rating (corn (Zea mays) [8]; [13]) was 10. For the same molecule, the “Corn damage rating (100=total damage to plant; 0=no damage to plant)” value (corn (Zea mays) [8]; [14]) was 20, the “damage to plant, Corn (100=total damage to plant; 0=no damage to plant)” value (corn (Zea mays) [8]; [15]) was 60 and the “Foxtail, Giant damage rating” value [9, 13] was 60. For the same molecule, the “Foxtail, Giant damage rating (100=total damage to plant; 0=no damage to plant)” value [9, 14] was 70, the “damage to plant, Foxtail, Giant (100=total damage to plant; 0=no damage to plant)” value [9, 15] was 70 and the “Morningglory, Ivy-leaved damage rating” value [10, 13] was 0. For the same molecule, the “Morningglory, Ivy-leaved damage rating (100=total damage to plant; 0=no damage to plant)” value [10, 14] was 0, the “damage to plant, Morningglory, Ivy-leaved (100=total damage to plant; 0=no damage to plant)” value [10, 15] was 0 and the “Pigweed, Redroot damage rating” value [11, 13] was 20. The “Pigweed, Redroot damage rating (100=total damage to plant; 0=no damage to plant)” value [11, 14] was 50 and the “damage to plant, Pigweed, Redroot (100=total damage to plant; 0=no damage to plant)” value [11, 15] was 60.
